Experimental data: patent US20250282775A1, “SOLID FORM OF 3-((1R,3R)-1-(2,6-DIFLUORO-4-((1-(3- FLUOROPROPYL)AZETIDIN-3-YL)AMINO)PHENYL)-3-METHYL-1,3,4,9- TETRAHYDRO-2H-PYRIDO[3,4-B]INDOL-2-YL)-2,2-DIFLUOROPROPAN-1-OL TARTRATE” (Hoffmann-La Roche Inc., priority 2022, published 2025)

Experiments:
Format in all cases: physicochemical
[1] = Particle size distribution by laser diffraction; settings: API lot
Method: The particle size distribution of crystalline 3-((1R,3R)-1-(2,6-difluoro-4-((1-(3-fluoropropyl)azetidin-3-yl)amino)phenyl)-3-methyl-1,3,4,9-tetrahydro-2H-pyrido[3,4-b]indol-2-yl)-2,2-difluoropropan-1-ol tartrate of the invention was analyzed by laser diffraction as described in the USP <429> for Laser Diffraction Measurement of Particle Size and in the European Pharmacopoeia chapter 2.9.31 Particle size analysis by Laser Diffraction. Details of the apparatus used and measurements are given in Example 3.
For the measurement, a Malvern MasterSizer 3000 device from Malvern, UK, coupled with a liquid dispersion unit Hydro MV®, Malvern, UK was used. The crystalline Giredestrant tartrate as obtained from Example 1 or 2 was dispersed in dispersion medium consisting in technical grade n-heptane with 0.2% w/w.-% Span 85 (Sorbitane trioleate, e.g. Fluka/Sigma Cat. Nr. 85549 or equivalent) non-saturated.
Procedure: the crystalline Giredestrant tartrate is directly added in the Hydro MV dispersion unit and stirred at 2500 rpm achieving an appropriate optical concentration (between 5% and 25% optical concentrations).
Measurement: The test dispersion was measured and the cumulative volume dispersion was determined using the laser diffraction instrument mentioned above in accordance with the instruction manual. Measurements were performed after 2 minutes stirring time. The Fraunhofer approximation was used for the particle diameters calculations, Opaque Particle was used for the Particle type and General purpose was used for the Analysis model. The background and the measuring duration were set at 30 seconds.
Three independent samples were measured one time. The average particle size distribution in volume at the undersize values of 10%, 50% and 90% (×10, ×50 and ×90) percentiles were evaluated from the cumulative distribution.
(§1) The following table illustrates the improved manufacturability properties of the crystalline API that is prepared according to the process of the present invention (lot “BS2008SA02”). The E1 lot was prepared according to the process described in WO2019245974.

[2] = BET surface area of API lots; settings: API lot
Method: as §1

[3] = Bulk density, tapped density and flowability of API; settings: for Bulk Density / Tapped Density: API lot
Method: as §1

[4] = Effect of compression on API degradation (HPLC); settings: 60° C./11% RH, containers open, up to 4 weeks, tartrate
Method: The effect of compression on API degradation was investigated. Samples of uncompressed API (neat API powder as-is) and compressed API (compact) were aged at 60° C./11% RH with containers open for up to 1 month. Samples were assayed by HPLC (see Example 10). […] The following HPLC method was used to measure the RRCs described herein: [table]

[5] = Form B as prepared per WO2019245974

Row | SMILES | D10 [1] [μm] | D50 [1] [μm] | D90 [1] [μm] | BET SA [2] [m2/g] | Bulk Density [3] [g/mL] | Tapped Density [3] [g/mL] | growth of the impurity at RRT=0.58 ([4]; listed as compressed API) | growth of the impurity at RRT=0.58 ([4]; listed as uncompressed API) | bulk density (in words) [3, 5] | flowability [3, 5]
1 | C[C@@H]1Cc2c([nH]c3ccccc23)[C@@H](c2c(F)cc(NC3CN(CCCF)C3)cc2F)N1CC(F)(F)CO.O=C(O)C(O)C(O)C(=O)O [BS2008SA02] | 30 | 41 | 56 | 1.7 | 0.57 | 0.64 | – | – | – | –
2 | C[C@@H]1Cc2c([nH]c3ccccc23)[C@@H](c2c(F)cc(NC3CN(CCCF)C3)cc2F)N1CC(F)(F)CO.O=C(O)C(O)C(O)C(=O)O [giredestrant tartrate, 3-((1R,3R)-1-(2,6-difluoro-4-((1-(3-fluoropropyl)azetidin-3-yl)amino)phenyl)-3-methyl-1,3,4,9-tetrahydro-2H-pyrido[3,4-b]indol-2-yl)-2,2-difluoropropan-1-ol tartrate] | – | – | – | – | – | – | faster growth rate | growth of the impurity at RRT=0.58 was observed | low bulk density | poor flowability
3 | C[C@@H]1Cc2c([nH]c3ccccc23)[C@@H](c2c(F)cc(NC3CN(CCCF)C3)cc2F)N1CC(F)(F)CO.O=C(O)C(O)C(O)C(=O)O [711-005-5467-001 (E1)] | 2 | 8 | 27 | 2.9 | 0.31 | 0.41 | – | – | – | –
